Assay results as given in ChEMBL document CHEMBL5465560, “Selectivity Literature for EUbOPEN Chemogenomic Library” (2024).

Experiments:
[1] = biological target: Casein kinase I isoform gamma-2 (Homo sapiens) (UniProt P78368); assay: Selectivity interaction (KinomeScan (DiscoverX)) EUB0000655a CSNK1G2; conditions: at 10 µM
[2] = biological target: Casein kinase I isoform alpha (Homo sapiens, UniProt P48729); assay: Selectivity interaction (KinomeScan (DiscoverX)) EUB0001079a CSNK1A1; conditions: at 1 µM
[3] = biological target: Proto-oncogene tyrosine-protein kinase Src (Homo sapiens, UniProt P12931); assay: Selectivity interaction (KinomeScan (DiscoverX)) EUB0000607a SRC; conditions: at 10 µM
[4] = biological target: Dual specificity tyrosine-phosphorylation-regulated kinase 1A (Homo sapiens, UniProt Q13627); assay: Selectivity interaction (KinomeScan (DiscoverX)) EUB0001619a DYRK1A; conditions: at 1 µM
[5] = biological target: Maternal embryonic leucine zipper kinase (Homo sapiens) (UniProt Q14680); assay: Selectivity interaction (KinomeScan (DiscoverX)) EUB0000045b MELK
[6] = biological target: T1, Mitogen-activated protein kinase kinase kinase 5 (Homo sapiens) (UniProt Q99683); assay: Selectivity interaction (KinomeScan (DiscoverX)) EUB0000595a MAP3K5; conditions: at 10 µM
T1 sequence (whole entry): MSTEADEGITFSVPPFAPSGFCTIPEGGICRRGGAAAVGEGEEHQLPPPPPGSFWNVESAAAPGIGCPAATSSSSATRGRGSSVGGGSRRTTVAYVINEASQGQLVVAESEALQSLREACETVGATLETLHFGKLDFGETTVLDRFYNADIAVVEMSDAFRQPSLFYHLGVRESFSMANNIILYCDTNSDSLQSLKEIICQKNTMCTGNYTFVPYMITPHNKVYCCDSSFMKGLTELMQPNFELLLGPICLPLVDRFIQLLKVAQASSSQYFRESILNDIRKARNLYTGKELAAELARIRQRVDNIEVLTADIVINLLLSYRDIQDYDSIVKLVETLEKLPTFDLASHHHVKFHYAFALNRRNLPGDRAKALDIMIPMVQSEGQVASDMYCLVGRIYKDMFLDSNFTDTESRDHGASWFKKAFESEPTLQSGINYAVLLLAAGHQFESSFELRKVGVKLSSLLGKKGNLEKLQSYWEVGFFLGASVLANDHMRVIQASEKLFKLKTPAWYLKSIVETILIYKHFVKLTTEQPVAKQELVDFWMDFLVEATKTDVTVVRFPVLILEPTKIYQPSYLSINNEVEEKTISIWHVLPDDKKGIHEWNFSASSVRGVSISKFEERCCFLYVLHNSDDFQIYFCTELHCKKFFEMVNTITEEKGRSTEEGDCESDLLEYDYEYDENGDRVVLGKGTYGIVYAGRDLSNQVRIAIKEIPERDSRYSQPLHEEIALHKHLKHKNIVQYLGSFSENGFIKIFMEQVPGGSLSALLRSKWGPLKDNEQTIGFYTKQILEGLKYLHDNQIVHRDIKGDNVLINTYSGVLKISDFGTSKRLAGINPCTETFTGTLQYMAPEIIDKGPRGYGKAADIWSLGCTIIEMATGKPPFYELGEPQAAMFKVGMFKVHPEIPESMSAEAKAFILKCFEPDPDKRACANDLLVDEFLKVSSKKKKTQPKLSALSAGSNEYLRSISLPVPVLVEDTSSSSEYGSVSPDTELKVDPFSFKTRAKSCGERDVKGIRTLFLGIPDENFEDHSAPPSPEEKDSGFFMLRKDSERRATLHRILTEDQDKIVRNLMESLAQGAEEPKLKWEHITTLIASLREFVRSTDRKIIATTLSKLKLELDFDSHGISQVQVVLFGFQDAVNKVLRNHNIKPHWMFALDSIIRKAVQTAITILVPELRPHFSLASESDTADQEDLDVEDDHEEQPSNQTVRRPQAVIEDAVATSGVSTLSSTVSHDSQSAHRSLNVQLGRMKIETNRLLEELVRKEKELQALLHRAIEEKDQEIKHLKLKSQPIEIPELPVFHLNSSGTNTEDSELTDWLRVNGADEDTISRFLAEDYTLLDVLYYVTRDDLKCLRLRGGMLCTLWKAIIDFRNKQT

[7] = biological target: T2, Calcium/calmodulin-dependent protein kinase type IV (Homo sapiens) (UniProt Q16566); assay: Selectivity interaction (Kinase panel (KiNativ target engagement assay in Jurkat cells)) EUB0001635a CAMK4; format: cell-based; conditions: Selectivity number of off-targets 0.0, Selectivity number of targets 233.0, Source Knowledge https://www.sciencedirect.com/science/article/pii/S2451945619300674?via%3Dihub, at 1 µM
T2 sequence (whole entry): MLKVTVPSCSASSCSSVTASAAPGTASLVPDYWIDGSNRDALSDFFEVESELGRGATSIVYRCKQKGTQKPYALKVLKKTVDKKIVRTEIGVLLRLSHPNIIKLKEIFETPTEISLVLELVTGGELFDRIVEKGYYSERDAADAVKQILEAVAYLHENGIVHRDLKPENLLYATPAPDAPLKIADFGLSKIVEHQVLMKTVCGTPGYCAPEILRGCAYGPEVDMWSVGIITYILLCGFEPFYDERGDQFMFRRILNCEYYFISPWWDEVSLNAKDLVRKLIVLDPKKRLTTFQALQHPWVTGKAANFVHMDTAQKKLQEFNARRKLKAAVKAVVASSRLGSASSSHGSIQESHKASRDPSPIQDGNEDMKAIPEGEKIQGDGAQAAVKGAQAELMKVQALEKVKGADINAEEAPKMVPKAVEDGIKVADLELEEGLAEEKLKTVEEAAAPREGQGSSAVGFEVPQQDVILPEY

[8] = biological target: Myosin light chain kinase, smooth muscle (Homo sapiens, UniProt Q15746); conditions: at 10 µM
[9] = biological target: Receptor tyrosine-protein kinase erbB-3 (Homo sapiens) (UniProt P21860); conditions: at 10 µM
[10] = biological target: Platelet-derived growth factor receptor alpha (Homo sapiens, UniProt P16234); assay: Selectivity interaction (KinomeScan (DiscoverX)) EUB0000229b PDGFRA; conditions: at 10 µM
[11] = biological target: Serine/threonine-protein kinase Nek6 (Homo sapiens) (UniProt Q9HC98); assay: Selectivity interaction (KinomeScan (DiscoverX)) EUB0000092b NEK6; conditions: at 10 µM
[12] = biological target: Serine/threonine-protein kinase PRP4 homolog (Homo sapiens) (UniProt Q13523); assay: Selectivity interaction (KinomeScan (DiscoverX)) EUB0000695a PRPF4B; conditions: at 100 nM
[13] = biological target: Serine/threonine-protein kinase tousled-like 2 (Homo sapiens) (UniProt Q86UE8); assay: Selectivity interaction (KinomeScan (DiscoverX)) EUB0000695a TLK2; conditions: at 100 nM
Sequence of Serine/threonine-protein kinase tousled-like 2 (Homo sapiens) (Q86UE8 whole entry, looked up): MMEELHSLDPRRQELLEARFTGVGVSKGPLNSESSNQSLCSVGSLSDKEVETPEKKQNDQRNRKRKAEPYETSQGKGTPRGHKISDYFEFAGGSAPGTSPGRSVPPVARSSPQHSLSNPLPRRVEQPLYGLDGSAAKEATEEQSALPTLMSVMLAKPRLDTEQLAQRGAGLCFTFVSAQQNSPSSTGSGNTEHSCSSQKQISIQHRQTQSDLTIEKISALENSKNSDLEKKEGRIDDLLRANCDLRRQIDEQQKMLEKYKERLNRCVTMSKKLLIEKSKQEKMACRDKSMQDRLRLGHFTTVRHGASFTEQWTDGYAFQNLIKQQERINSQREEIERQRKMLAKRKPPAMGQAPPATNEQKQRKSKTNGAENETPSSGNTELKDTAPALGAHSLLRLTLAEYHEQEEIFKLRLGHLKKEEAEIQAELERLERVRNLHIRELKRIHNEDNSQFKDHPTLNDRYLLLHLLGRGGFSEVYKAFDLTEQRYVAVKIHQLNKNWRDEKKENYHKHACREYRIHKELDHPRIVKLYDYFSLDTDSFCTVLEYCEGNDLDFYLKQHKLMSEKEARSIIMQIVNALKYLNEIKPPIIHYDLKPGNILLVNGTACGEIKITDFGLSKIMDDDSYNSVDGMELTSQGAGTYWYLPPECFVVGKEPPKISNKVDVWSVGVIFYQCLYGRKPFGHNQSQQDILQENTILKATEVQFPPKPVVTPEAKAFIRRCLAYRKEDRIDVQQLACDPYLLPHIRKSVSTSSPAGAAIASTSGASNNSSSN

Sequence of Maternal embryonic leucine zipper kinase (Homo sapiens) (Q14680 whole entry, looked up): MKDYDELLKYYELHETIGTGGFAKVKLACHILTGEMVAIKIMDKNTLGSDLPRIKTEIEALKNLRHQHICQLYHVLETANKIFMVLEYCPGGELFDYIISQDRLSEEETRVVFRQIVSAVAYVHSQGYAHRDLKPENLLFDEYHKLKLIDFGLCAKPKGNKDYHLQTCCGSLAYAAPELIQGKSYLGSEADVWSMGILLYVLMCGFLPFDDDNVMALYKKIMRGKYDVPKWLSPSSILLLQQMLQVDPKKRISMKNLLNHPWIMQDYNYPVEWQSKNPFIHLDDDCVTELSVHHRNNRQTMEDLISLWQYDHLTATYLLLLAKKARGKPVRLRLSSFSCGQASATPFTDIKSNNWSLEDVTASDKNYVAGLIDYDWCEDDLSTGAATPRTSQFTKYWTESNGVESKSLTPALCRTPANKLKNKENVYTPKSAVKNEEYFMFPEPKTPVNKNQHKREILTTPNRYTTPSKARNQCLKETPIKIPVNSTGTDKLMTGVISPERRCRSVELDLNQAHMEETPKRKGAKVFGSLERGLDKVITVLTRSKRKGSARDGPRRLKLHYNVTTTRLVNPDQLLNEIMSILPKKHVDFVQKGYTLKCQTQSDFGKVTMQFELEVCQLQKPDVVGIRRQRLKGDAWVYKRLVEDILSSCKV
Sequence of Casein kinase I isoform gamma-2 (Homo sapiens) (P78368 whole entry, looked up, canonical isoform): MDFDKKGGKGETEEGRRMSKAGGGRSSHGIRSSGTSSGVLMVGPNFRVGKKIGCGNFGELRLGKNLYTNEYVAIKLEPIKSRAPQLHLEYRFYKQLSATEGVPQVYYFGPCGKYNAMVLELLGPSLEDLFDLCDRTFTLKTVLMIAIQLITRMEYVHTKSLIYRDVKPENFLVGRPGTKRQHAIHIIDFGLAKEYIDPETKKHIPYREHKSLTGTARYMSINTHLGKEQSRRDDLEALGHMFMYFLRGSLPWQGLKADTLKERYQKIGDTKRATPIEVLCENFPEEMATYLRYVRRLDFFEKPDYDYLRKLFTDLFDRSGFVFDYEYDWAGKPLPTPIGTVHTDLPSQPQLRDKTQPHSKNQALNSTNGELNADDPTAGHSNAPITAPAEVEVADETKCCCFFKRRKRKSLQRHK
Sequence of Myosin light chain kinase, smooth muscle (Q15746 whole entry): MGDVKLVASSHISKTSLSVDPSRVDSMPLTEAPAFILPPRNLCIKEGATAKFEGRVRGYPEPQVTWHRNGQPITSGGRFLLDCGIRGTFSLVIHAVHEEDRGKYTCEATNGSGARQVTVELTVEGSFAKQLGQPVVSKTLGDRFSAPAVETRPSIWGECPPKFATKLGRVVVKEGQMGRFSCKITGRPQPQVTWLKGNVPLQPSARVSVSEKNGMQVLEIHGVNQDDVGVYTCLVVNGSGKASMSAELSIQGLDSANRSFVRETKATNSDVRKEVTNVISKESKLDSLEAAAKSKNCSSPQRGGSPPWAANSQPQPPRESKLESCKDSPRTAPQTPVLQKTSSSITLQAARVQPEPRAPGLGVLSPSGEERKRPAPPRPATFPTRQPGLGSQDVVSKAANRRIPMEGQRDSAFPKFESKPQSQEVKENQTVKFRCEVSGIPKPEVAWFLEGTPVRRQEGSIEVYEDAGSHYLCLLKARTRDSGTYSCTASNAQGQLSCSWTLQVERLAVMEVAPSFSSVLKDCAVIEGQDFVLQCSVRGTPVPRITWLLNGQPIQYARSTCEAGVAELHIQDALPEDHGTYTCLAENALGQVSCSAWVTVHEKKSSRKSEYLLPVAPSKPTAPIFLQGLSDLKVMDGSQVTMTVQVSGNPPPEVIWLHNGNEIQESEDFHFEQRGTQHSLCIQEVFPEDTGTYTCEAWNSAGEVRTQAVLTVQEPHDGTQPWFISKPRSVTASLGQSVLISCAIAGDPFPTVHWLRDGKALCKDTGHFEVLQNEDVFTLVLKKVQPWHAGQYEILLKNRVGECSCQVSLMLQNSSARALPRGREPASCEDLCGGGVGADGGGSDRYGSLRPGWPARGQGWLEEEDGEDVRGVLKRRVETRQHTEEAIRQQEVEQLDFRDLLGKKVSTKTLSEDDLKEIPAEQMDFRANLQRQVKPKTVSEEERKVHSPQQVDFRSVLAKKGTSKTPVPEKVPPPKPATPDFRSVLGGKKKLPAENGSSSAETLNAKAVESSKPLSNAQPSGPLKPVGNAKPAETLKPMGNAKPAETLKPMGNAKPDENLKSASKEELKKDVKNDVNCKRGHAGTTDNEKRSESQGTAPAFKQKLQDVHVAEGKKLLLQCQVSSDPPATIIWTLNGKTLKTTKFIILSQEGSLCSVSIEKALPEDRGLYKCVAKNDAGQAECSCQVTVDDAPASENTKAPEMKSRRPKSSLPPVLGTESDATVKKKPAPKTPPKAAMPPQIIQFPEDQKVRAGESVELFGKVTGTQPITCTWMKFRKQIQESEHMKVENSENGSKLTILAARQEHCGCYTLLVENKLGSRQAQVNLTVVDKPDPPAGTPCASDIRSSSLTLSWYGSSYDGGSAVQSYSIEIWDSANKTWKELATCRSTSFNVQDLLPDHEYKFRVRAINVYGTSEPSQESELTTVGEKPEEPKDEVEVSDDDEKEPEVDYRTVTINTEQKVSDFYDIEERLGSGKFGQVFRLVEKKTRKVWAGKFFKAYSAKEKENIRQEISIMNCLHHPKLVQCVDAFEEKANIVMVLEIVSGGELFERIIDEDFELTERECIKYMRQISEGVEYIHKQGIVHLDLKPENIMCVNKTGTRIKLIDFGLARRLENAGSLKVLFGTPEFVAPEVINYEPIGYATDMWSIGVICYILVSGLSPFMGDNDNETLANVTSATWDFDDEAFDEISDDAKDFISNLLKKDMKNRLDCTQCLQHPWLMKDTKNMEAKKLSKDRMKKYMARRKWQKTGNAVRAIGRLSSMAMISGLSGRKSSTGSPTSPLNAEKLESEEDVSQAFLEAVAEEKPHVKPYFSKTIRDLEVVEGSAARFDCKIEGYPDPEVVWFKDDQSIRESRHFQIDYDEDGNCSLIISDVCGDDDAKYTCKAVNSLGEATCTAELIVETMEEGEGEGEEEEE
Sequence of Serine/threonine-protein kinase Nek6 (Homo sapiens) (Q9HC98 whole entry): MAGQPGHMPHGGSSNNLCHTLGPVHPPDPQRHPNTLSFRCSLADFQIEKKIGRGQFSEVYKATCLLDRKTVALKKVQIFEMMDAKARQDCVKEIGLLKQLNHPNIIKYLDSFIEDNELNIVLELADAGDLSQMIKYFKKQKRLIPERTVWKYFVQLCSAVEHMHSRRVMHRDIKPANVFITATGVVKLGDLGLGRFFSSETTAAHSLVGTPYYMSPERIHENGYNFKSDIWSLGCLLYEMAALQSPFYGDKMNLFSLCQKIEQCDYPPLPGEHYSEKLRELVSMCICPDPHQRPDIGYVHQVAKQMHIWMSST
Sequence of Proto-oncogene tyrosine-protein kinase Src (P12931 2-536 limits assumed): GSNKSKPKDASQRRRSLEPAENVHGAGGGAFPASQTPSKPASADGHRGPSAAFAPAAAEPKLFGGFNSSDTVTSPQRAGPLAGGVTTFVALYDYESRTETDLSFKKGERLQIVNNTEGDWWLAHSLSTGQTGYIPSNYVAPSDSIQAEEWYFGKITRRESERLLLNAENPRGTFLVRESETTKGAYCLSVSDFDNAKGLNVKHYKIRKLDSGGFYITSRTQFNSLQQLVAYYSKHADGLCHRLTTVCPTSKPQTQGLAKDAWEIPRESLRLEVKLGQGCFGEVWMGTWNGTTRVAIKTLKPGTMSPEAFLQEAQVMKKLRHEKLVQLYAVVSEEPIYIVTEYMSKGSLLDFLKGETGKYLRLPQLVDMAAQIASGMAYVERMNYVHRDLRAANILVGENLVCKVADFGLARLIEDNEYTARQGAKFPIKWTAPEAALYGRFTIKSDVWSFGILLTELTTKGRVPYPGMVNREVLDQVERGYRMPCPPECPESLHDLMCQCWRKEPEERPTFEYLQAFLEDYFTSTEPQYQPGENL
Sequence of Casein kinase I isoform alpha (P48729 2-337 limits assumed): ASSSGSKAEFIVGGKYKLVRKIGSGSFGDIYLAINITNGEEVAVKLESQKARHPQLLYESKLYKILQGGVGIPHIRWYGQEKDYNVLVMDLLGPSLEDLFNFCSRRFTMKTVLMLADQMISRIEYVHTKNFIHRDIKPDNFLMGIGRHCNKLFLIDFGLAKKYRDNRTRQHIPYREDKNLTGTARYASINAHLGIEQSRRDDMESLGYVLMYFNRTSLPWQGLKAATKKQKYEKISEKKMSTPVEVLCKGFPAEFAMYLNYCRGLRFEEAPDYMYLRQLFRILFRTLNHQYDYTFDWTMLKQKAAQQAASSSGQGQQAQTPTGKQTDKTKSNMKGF

CN(C)CCOc1ccc(-c2nc(-c3ccncc3)c(-c3ccc4c(c3)CC/C4=N\O)[nH]2)cc1
% of control [1]: 72%

Nc1cnc(N2CCc3cc(S(=O)(=O)Nc4c(F)cc(Cl)cc4F)cc(N4CCCC4=O)c32)nc1 [TP-020n]
% of control [2]: 100%

CNC(=O)Nc1ccc(-c2nc(N3CC4CCC(C3)O4)c3cnn(C4CCC5(CC4)OCCO5)c3n2)cc1
% of control [3]: 75%

N#Cc1cccc(-c2c[nH]c3ncnc(N4CCOCC4)c23)c1
% of control [4]: 78%

C=CC(=O)Nc1cc(-n2c(=O)ccc3cnc4ccc(-c5ccc(NS(C)(=O)=O)cc5)cc4c32)ccc1C
% of control ([5]; at 1 µM): 100%
% of control ([5]; at 10 µM): 75%

COCC(=O)NC/C=C/c1ccc2ncnc(Nc3ccc(Oc4ccc(C)nc4)c(C)c3)c2c1 [CP-724714]
% of control [6]: 90%

C=CC(=O)Nc1ccc(C(=O)Nc2[nH]nc3c2CN(C(=O)N[C@H](CN(C)C)c2ccccc2)C3(C)C)cc1
% of engagement [7]: -6.4%

Cc1cc([C@@H](C)Nc2ccccc2C(=O)O)c2nc(N3CCOCC3)cc(=O)n2c1 [AZD-6482]
% of control [8]: 100%
% of control [9]: 100%

COc1cc(N(C)c2ccnc3ccc(C(F)(F)F)cc23)cc(OC)c1OC
% binding [10]: 98%

CCC(=O)N1CCN(c2ccc(-n3c(=O)ccc4cnc5ccc(-c6cnc7ccccc7c6)cc5c43)cc2C(F)(F)F)CC1
% of control [11]: 99%

Cc1cc(F)c(C(=O)Nc2cccc(-c3nncn3C(C)C)n2)cc1-n1cnc(C2CC2)c1
% of control [12]: 81%
% of control [13]: 100%
